{
  "source": "ChEMBL document CHEMBL5365447",
  "about": "“Pronucleotides of 2',3'-Dideoxy-2',3'-Didehydrothymidine as Potent Anti-HIV Compounds” (J Med Chem, 2023)",
  "key": {"[1]": {"biological_target": "T1, DNA polymerase subunit gamma-1 (Homo sapiens) (UniProt P54098)", "T1 sequence (whole entry)": "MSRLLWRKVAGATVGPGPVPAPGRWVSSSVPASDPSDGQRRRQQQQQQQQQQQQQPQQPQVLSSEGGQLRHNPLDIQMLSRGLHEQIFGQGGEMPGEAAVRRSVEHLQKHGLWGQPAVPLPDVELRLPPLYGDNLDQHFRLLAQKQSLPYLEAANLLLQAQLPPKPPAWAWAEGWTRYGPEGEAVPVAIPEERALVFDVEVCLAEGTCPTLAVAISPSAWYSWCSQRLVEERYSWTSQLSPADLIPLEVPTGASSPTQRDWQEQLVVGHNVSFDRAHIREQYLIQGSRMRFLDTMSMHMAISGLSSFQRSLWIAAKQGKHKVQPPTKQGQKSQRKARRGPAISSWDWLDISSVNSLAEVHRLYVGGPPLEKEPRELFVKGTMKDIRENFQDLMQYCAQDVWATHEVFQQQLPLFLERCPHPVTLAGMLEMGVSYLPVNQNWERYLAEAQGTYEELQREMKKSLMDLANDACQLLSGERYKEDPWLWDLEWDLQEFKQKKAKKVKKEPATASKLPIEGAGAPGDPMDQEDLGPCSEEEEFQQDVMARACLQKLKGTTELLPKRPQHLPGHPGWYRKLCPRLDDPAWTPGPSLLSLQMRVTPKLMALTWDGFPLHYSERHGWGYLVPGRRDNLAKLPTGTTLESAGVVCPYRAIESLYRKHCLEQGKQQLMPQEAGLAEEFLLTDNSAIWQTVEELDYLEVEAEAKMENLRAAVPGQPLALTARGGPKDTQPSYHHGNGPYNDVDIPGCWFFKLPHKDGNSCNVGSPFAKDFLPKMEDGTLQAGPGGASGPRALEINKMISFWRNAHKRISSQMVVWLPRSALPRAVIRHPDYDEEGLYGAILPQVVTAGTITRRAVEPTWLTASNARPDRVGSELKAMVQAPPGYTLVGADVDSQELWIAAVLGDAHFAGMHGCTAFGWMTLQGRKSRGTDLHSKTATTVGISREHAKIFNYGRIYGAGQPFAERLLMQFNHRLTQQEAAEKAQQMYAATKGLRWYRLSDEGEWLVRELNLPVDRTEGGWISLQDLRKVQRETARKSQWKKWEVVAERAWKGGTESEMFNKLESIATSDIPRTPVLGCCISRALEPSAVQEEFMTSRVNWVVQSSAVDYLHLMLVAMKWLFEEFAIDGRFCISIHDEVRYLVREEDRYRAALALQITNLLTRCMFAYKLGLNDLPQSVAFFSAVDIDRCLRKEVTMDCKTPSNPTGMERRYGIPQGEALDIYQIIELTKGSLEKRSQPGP", "assay": "Substrate activity at human DNA polymerase gamma measured after 4 hrs by electrophoresis based primer extension assay"}, "[2]": {"test_system": "Human immunodeficiency virus 1", "assay": "Antiviral activity against HIV-1 HE infected in wild-type human CEM/0 cells assessed as inhibition of virus-induced cytopathic effect incubated for 4 to 5 days by light microscopic analysis", "assay_type": "functional, organism-based", "conditions": "Human immunodeficiency virus 1, HE, CCRF-CEM"}},
  "note": "The source made the active and inactive calls. The rule behind the calls is not given here.",
  "data": [
    {"smiles": "CCCCCCCCCCCCCCCCCCP(=O)(OC)OP(=O)(O)OP(=O)(O)OC[C@@H]1C=C[C@H](n2cc(C)c(=O)[nH]c2=O)O1.N.N", "note": "(some centres not stated)", "values": [
      {"measurement": "Activity", "setting": "[1]", "value": "inactive"},
      {"measurement": "EC50", "setting": "[2]", "value": 51, "unit": "nM"}
    ]}
  ]
}
